Source: ChEMBL document CHEMBL1201862, “PubChem BioAssay data set” (2004)
Activity calls are given as the source filed them.

Key:
Assay type in all cases: functional
[1] = target: Serine/threonine-protein kinase Nek2 (Homo sapiens, UniProt P51955)
[2] = target: Dual specificity tyrosine-phosphorylation-regulated kinase 1A (Homo sapiens, UniProt Q13627);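 note: measured against DYRK1A as one member of a broad kinome profiling panel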
[3] = target: Leucine-rich repeat serine/threonine-protein kinase 2 (Homo sapiens, UniProt Q5S007);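 note: value from a broad kinome-wide panel profiling study in which LRRK2 was one of the kinases tested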
[4] = target: T1, Serine/threonine-protein kinase Chk1 (Homo sapiens, UniProt O14757);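 note: measured as one member of a kinome-wide kinase profiling panel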
T1 sequence (O14757 whole entry): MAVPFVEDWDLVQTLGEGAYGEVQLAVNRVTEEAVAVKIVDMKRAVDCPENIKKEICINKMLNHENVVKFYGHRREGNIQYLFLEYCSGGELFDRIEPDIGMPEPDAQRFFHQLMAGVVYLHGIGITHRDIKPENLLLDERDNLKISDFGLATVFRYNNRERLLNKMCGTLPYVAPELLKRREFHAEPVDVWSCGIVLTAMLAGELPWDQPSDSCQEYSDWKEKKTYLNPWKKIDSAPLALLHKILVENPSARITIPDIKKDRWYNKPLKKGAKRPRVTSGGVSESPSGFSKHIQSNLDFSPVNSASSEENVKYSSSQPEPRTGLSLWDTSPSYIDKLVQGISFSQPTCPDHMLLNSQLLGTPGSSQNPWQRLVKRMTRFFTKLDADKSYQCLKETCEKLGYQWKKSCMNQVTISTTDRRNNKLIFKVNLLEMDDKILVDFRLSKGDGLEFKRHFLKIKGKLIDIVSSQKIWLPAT

[5] = target: Dual specificity tyrosine-phosphorylation-regulated kinase 1B (Homo sapiens, UniProt Q9Y463); assay: Navigating the Kinome. Panel member name: DYRK1B
[6] = target: Cyclin-dependent kinase 5 (Homo sapiens, UniProt Q00535);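 note: CDK5 measured as one member of a kinase profiling panel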
[7] = target: Dual specificity protein kinase CLK4 (Homo sapiens, UniProt Q9HAZ1)
[8] = target: Platelet-derived growth factor receptor alpha (Homo sapiens, UniProt P16234); assay: Navigating the Kinome. Panel member name: PDGFRA

Measured: Ki

Chain of Dual specificity protein kinase CLK4 (Q9HAZ1 whole entry): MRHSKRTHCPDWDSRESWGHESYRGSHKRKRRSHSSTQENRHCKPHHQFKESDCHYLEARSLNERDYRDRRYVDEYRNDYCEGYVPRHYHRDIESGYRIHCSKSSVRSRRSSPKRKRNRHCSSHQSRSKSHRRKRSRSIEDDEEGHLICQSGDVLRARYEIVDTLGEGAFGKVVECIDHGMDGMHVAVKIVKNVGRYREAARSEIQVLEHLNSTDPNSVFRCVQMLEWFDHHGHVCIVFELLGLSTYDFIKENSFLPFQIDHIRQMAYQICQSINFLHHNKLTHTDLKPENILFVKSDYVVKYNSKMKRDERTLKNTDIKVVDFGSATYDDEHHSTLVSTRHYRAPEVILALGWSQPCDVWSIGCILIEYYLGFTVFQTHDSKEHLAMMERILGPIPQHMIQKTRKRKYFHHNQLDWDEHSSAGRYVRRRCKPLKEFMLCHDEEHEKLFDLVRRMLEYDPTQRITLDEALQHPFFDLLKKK
Chain of Platelet-derived growth factor receptor alpha (P16234 whole entry): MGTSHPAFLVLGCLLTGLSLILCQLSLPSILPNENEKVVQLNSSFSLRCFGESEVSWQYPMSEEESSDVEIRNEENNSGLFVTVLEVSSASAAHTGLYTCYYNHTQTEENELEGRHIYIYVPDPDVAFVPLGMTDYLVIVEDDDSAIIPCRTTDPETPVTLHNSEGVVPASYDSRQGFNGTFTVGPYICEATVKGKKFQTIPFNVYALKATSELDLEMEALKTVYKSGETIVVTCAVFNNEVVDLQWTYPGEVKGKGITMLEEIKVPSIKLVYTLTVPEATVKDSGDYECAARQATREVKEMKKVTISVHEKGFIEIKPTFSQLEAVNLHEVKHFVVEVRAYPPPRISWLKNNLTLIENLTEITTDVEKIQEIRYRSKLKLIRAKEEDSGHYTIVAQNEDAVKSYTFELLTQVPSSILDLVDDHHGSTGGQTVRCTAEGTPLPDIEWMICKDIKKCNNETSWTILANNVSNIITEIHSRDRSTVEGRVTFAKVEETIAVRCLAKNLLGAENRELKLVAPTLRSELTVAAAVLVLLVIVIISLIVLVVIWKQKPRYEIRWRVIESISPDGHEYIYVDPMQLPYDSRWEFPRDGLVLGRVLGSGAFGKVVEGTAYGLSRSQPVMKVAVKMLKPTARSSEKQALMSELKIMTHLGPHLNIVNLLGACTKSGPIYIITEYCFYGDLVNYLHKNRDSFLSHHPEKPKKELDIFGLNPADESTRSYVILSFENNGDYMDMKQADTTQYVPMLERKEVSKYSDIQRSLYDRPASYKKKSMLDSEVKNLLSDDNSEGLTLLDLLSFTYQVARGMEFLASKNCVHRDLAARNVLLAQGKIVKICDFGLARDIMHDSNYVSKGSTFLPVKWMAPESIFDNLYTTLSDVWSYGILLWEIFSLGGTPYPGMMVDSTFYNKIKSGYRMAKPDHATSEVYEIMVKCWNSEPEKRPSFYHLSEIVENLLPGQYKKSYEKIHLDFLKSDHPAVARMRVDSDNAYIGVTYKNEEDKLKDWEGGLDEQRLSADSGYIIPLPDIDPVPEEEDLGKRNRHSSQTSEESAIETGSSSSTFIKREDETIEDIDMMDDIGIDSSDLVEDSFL
Chain of Leucine-rich repeat serine/threonine-protein kinase 2 (Q5S007 whole entry): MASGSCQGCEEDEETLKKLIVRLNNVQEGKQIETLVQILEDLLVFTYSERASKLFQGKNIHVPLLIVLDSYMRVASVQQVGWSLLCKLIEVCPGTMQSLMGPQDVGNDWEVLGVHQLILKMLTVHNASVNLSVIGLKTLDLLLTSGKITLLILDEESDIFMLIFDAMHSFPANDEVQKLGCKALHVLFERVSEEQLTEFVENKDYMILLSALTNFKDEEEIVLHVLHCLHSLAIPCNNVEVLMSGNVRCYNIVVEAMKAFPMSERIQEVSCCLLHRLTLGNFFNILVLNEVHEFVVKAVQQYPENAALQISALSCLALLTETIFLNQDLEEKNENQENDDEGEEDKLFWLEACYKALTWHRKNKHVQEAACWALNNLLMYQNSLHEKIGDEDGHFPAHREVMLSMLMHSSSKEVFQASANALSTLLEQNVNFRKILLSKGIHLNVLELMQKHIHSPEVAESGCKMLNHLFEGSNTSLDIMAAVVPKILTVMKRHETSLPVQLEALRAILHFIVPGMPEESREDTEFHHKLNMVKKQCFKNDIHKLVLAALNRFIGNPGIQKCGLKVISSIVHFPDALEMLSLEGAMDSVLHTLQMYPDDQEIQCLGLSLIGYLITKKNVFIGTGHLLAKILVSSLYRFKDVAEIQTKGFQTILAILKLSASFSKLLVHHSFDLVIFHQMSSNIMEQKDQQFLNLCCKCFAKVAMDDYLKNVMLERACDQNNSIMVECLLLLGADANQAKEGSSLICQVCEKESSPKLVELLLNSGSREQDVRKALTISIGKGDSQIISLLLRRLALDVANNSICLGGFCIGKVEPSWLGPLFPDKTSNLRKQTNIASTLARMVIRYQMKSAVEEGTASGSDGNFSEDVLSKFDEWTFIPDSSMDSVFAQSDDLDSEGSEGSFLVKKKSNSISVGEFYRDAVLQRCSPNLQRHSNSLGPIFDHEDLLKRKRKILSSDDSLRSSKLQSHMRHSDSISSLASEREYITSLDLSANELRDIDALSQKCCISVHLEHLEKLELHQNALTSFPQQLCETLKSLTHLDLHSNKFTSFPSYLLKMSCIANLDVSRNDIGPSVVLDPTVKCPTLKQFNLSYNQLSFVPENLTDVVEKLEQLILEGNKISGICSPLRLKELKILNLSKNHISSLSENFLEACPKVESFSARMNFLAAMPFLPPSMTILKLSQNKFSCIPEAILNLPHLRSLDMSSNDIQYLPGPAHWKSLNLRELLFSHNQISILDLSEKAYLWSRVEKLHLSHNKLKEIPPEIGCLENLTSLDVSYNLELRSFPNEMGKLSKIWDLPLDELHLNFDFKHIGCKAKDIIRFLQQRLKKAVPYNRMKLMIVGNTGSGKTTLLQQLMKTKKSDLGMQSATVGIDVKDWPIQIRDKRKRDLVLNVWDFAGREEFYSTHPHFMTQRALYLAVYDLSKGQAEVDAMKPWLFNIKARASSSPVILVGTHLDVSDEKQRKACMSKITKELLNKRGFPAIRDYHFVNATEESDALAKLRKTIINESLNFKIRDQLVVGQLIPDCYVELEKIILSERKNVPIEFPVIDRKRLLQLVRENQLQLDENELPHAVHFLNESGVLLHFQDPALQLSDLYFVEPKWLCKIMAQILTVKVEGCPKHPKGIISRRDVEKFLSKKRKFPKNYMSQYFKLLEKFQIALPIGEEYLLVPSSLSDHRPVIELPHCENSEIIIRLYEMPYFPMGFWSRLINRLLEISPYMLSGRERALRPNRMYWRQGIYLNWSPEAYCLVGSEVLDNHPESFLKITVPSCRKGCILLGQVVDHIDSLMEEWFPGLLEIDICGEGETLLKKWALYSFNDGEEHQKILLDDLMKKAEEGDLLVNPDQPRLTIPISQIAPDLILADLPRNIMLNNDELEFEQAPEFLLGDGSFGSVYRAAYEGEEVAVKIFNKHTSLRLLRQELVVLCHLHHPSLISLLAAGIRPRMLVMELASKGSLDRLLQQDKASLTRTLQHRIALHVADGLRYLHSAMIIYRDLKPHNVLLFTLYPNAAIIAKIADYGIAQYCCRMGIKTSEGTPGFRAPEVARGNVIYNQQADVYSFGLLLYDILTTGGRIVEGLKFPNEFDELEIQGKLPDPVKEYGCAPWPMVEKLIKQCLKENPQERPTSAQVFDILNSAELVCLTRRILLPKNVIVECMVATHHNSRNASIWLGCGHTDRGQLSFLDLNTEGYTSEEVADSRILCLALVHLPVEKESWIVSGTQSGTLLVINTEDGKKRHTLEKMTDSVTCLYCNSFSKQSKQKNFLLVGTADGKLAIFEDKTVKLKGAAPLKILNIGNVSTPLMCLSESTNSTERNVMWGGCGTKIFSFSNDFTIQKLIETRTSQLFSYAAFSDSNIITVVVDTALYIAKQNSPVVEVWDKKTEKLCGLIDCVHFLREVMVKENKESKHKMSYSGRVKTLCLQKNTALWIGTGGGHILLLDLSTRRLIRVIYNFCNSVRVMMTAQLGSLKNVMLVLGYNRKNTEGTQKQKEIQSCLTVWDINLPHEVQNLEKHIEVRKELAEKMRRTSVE
Chain of Serine/threonine-protein kinase Nek2 (P51955 whole entry): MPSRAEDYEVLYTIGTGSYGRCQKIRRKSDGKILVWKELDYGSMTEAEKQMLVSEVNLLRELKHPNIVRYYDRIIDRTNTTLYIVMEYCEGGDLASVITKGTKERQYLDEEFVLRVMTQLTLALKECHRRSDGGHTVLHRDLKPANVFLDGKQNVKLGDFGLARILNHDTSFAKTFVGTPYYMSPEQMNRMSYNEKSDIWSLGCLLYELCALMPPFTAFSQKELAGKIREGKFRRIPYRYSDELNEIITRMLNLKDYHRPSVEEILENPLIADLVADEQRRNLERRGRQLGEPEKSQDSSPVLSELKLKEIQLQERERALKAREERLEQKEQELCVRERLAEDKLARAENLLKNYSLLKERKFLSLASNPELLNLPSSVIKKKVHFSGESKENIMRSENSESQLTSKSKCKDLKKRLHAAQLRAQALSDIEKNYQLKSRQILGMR
Chain of Cyclin-dependent kinase 5 (Q00535 whole entry): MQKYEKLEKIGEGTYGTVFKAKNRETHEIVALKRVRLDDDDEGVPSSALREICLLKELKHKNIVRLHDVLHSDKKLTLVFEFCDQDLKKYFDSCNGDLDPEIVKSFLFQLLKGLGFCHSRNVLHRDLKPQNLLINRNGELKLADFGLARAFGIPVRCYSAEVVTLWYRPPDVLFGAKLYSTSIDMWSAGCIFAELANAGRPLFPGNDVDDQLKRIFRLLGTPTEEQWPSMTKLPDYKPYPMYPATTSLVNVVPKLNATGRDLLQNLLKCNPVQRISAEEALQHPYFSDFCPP

Cc1cc2c(c(C#N)c1C)OC1(CCCCC1)C(N)C2=O (centres undefined)
active: [1] 5.01 µM | [2] 1.58 µM

Nc1nnc2sc3ccccc3n12
active: [3] 79.4 µM | [4] 39.8 µM | [5] 63.1 µM | [6] 39.8 µM | [2] 39.8 µM | [7] 31.6 µM | [8] 63.1 µM
